Measurements as given in ChEMBL document CHEMBL1201862, “PubChem BioAssay data set” (2004).
Calls of active or inactive are those of the source.

How the values were obtained:
Beta-galactosidase = Beta-galactosidase (Escherichia coli, UniProt Q8VNN2); assay: Dose response counterscreen for EBI2 assay utilizing the enzyme, b-galactosidase.; format: functional
[1] = biological target: Matrix metalloproteinase-14 (Homo sapiens, UniProt P50281); assay: Dose Response confirmation of uHTS hits for a small molecule inhibitors of MT1-MMP activation in a fluorescence assay set 1.; format: functional
Nonstructural protein 1 = Nonstructural protein 1 (Influenza A virus, UniProt Q194T2); format: functional, Influenza A virus (A/California/07/2009(H1N1))
Fatty acid synthase [2] = biological target: T1, Fatty acid synthase (Homo sapiens, UniProt P49327); assay: inhibition of human FAS-TE enzyme activity – biochemical, kinetic fluorescence intensity, dose response (AID 624326); format: functional;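 also: rate of fluorescence rise from hydrolysis of a fluorogenic O-methyl fluorescein ester substrate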
Fatty acid synthase [3] = biological target: T1, Fatty acid synthase; assay: inhibition of human FAS-TE enzyme activity – biochemical, endpoint fluorescence intensity, uHTS hits, dose response (AID 624327); format: functional;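 also: fluorescence from hydrolysis of an O-methyl fluorescein acyl ester substrate by the enzyme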
[4] = general mammalian cell viability loss – inhibitor set, cherry-pick, set 2, cytotoxicity control for miR-122 modulator project, dose response (AID 720697); format: functional, cell-based
[5] = HGIII-sPLA2 enzyme inhibition potency – biochemical, QFRET, IC50, dose response (AID 743457);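 also: green fluorescence rise as the enzyme cleaves BODIPY PC-A2 in liposomes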
[6] = biological target: Peroxisome proliferator-activated receptor gamma/Nuclear receptor corepressor 2 (Homo sapiens, UniProt P37231+Q9Y618); assay: Counterscreen for NR2E3 inverse agonists: TR-FRET-based biochemical high throughput dose response assay to identify inverse agonists of the interaction between peroxisome proliferator-activated receptor gamma (PPARg) and nuclear receptor co-repressor 2 (NCOR2).; format: functional
[7] = biological target: Photoreceptor-specific nuclear receptor (Homo sapiens, UniProt Q9Y5X4); assay: ligands suppressing NR2E3 nuclear receptor activity – biochemical, TR-FRET, dose response (AID 463256); format: functional
[8] = biological target: Arf-GAP with SH3 domain, ANK repeat and PH domain-containing protein 1 (Homo sapiens, UniProt Q9ULH1); format: functional;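 also: biochemical fluorescence polarization dose–response screen measuring inhibition of ASAP1; ASAP1 GAP domain stimulating GTP hydrolysis by truncated human ARF1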
[9] = NIH3T3 cell viability loss – ATP luminescence, mouse fibroblasts, counter-screen, dose response (AID 2010); format: functional, cell-based;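 also: cells exposed to compound for about 90 hours before reading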
[10] = Trypanosoma cruzi growth suppression in host cells – NIH3T3 host cells, beta-gal luminescence, confirmation (AID 2044); format: functional, cell-based;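 also: intracellular parasites grown in NIH/3T3 mouse fibroblasts as host cells; luminescent beta-galactosidase reporter signal from transgenic T. cruzi replicating inside host cells; inhibitors lower the luminescence signal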
[11] = inhibition of ADAM10 peptide cleavage – biochemical, FRET peptide substrate, recombinant human ADAM10, selectivity assay for ADAM17 exosite inhibitor project, dose response (AID 743259);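 also: ADAM10 enzyme cleaving a FRET peptide substrate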
[12] = biological target: T2, Disintegrin and metalloproteinase domain-containing protein 17 (Homo sapiens, UniProt P78536); assay: exosite inhibitors of ADAM17, dose response, biochemical (AID 743260)
[13] = biological target: Metabotropic glutamate receptor 5 (Rattus norvegicus, UniProt P31424); assay: Identification of a glycine sulfonamide based non-MPEP site positive allosteric potentiator (PAM) of mGlu5 (calcium_assay).; format: functional
[14] = biological target: T3, Carboxy-terminal domain RNA polymerase II polypeptide A small phosphatase 1 (Homo sapiens, UniProt Q9GZU7); assay: CTDSP1 inhibitors, concentration-response, biochemical, absorbance readout, ultra-high-throughput screen actives (AID 540297); format: functional
T3 sequence (Q9GZU7 whole entry): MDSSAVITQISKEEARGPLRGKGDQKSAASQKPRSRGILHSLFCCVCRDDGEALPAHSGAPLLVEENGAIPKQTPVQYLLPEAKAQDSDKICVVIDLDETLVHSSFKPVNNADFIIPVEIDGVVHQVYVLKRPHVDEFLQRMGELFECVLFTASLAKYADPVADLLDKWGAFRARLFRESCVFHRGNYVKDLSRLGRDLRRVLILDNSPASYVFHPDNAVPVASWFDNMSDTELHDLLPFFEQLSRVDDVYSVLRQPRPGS

[15] = biological target: 1-phosphatidylinositol 4,5-bisphosphate phosphodiesterase gamma-1 (Homo sapiens, UniProt P19174); assay: Counterscreen for inhibitors of phospholipase C isozymes (PLC-B3): Fluorescence-based biochemical high throughput dose response assay to identify inhibitors of phospholipase C isozymes (PLC-gamma1).
[16] = biological target: 1-phosphatidylinositol 4,5-bisphosphate phosphodiesterase beta-3 (Homo sapiens, UniProt Q01970); assay: Fluorescence-based biochemical high throughput dose response assay to identify inhibitors of phospholipase C isozymes (PLC-B3).
[17] = biological target: T2, Disintegrin and metalloproteinase domain-containing protein 17; assay: inhibition of ADAM17 substrate cleavage – biochemical, quenched FRET substrate, counter-screen for ADAM10 exosite inhibitor project, dose response (AID 743253)
[18] = potency of ADAM10 substrate cleavage blockers – biochemical, QFRET, dose response (AID 743254);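 also: ADAM10 enzyme with the DM2 quenched FRET peptide as substrate; EDANS fluorescence gain as the protease cuts the substrate; inhibitor potency against ADAM10 proteolytic activity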
[19] = microbe, parasite or virus in culture; format: functional; settings: Mycobacterium tuberculosis
Vero = assay: viability loss in Vero cells – cell-based, plate reader, cherry-pick samples, cytotoxicity control, dose response (AID 687020); format: functional; settings: Chlorocebus sabaeus
HeLa = assay: viability loss in HeLa cells – cell-based, ATP luminescence, cherry-pick samples, cytotoxicity control, dose response (AID 687004); format: functional; settings: Homo sapiens
[20] = biological target: SWI/SNF-related matrix-associated actin-dependent regulator of chromatin subfamily A member 2 (Homo sapiens, UniProt P51531); assay: Luminescence-based cell-based high throughput dose response assay to identify activators of the function of SWI/SNF related, matrix associated, actin dependent regulator of chromatin, subfamily a, member 2 (SMARCA2, BRM).; format: functional
[21] = Counterscreen for activators of the function of SWI/SNF related, matrix associated, actin dependent regulator of chromatin, subfamily a, member 2 (SMARCA2, BRM): Luminescence-based cell-based high throughput dose response assay to identify non-selective compounds using the VP16 reporter assay.; format: functional
[22] = CMV-driven luciferase expression suppression in HEK293 – cell-based, luminescence, dry powder, counter-screen for Pax8 inhibitor project, dose response (AID 743020); format: functional
[23] = IGROV1 cell killing – plate reader, dry powder samples, PAX8 inhibitor project, dose response (AID 743043); format: functional, cell-based; settings: IGROV-1
[24] = OVCAR-3 cell viability loss – plate reader, dry powder samples, PAX8 inhibitor project, dose response (AID 743044); format: functional, cell-based
[25] = general cell-killing toxicity readout – plate reader, dry powder samples, cytotoxicity control for PAX8 inhibitor project, dose response (AID 743021); format: functional, cell-based
Paired box protein Pax-8 = Paired box protein Pax-8 (Homo sapiens, UniProt Q06710); assay: PAX8 transcriptional activity inhibition in RMG-I – RMG-I cells, luciferase, cherry-pick, dose response (AID 687027); format: functional, cell-based;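 also: luciferase reporter driven by Pax8 target thyroperoxidase promoter measured by SteadyGlo luminescence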
[26] = biological target: T4, Trace amine-associated receptor 1 (Homo sapiens, UniProt Q96RJ0); assay: Fluorescence-based cell-based high throughput dose response assay to identify agonists of the human trace amine associated receptor 1 (TAAR1).; format: functional
cells [27] = format: functional, cell-based
cells [28] = format: functional, cell-based; remark: listed apart in the source
[29] = biological target: T4, Trace amine-associated receptor 1; assay: Counterscreen for agonists of the human trace amine associated receptor 1 (hTAAR1): Fluorescence-based cell-based high throughput dose response assay to identify hTAAR1 agonist that also desensitize TAAR1 receptor response.; format: functional
A549 = assay: viability loss in A549 cells – cell-based, plate reader, cherry-pick samples, cytotoxicity control, dose response (AID 687028); format: functional; settings: Homo sapiens
[30] = LMP1-induced NF-kB luciferase signal inhibition – cell-based, EBV LMP1, dry powder, set 2, dose response (AID 624361); format: functional
[31] = inhibitors of EBV LMP1 NF-kappaB signaling – cell-based, luciferase reporter, luminescence, dry powder, set 2, dose response (AID 624376); format: functional
[32] = inhibition of mouse IRAP aminopeptidase activity – biochemical, Leu-AMC fluorescence, cherry-picked samples, set 2, selectivity assay for ERAP1 modulator project, dose response (AID 743340)
[33] = viability loss in HEK293 kidney cells – cell-based, cherry-picks, set 5, cytotoxicity control, dose response (AID 1053117); format: functional
[34] = viability loss in A549 lung cancer cells – cell-based, cherry-picks, […], cytotoxicity control, dose response (AID 1053119); format: functional
[35] = viability loss in HepG2 hepatoma cells – cell-based, cherry-picks, set 5, cytotoxicity control, dose response (AID 1053118); format: functional
[36] = toxicity to human hepatoma HepG2 cells – cell-based, cherry-picked samples, cytotoxicity control, dose response (AID 1159577); format: functional
[37] = P. falciparum Dd2 growth inhibitors, dose response, SYBR Green, cherry-picked samples (AID 1159567); format: functional, cell-based
[38] = HeLa cell viability loss – plate reader, dry powder, cytotoxicity control, dose response (AID 651946); format: functional, cell-based

T1 sequence (P49327 whole entry): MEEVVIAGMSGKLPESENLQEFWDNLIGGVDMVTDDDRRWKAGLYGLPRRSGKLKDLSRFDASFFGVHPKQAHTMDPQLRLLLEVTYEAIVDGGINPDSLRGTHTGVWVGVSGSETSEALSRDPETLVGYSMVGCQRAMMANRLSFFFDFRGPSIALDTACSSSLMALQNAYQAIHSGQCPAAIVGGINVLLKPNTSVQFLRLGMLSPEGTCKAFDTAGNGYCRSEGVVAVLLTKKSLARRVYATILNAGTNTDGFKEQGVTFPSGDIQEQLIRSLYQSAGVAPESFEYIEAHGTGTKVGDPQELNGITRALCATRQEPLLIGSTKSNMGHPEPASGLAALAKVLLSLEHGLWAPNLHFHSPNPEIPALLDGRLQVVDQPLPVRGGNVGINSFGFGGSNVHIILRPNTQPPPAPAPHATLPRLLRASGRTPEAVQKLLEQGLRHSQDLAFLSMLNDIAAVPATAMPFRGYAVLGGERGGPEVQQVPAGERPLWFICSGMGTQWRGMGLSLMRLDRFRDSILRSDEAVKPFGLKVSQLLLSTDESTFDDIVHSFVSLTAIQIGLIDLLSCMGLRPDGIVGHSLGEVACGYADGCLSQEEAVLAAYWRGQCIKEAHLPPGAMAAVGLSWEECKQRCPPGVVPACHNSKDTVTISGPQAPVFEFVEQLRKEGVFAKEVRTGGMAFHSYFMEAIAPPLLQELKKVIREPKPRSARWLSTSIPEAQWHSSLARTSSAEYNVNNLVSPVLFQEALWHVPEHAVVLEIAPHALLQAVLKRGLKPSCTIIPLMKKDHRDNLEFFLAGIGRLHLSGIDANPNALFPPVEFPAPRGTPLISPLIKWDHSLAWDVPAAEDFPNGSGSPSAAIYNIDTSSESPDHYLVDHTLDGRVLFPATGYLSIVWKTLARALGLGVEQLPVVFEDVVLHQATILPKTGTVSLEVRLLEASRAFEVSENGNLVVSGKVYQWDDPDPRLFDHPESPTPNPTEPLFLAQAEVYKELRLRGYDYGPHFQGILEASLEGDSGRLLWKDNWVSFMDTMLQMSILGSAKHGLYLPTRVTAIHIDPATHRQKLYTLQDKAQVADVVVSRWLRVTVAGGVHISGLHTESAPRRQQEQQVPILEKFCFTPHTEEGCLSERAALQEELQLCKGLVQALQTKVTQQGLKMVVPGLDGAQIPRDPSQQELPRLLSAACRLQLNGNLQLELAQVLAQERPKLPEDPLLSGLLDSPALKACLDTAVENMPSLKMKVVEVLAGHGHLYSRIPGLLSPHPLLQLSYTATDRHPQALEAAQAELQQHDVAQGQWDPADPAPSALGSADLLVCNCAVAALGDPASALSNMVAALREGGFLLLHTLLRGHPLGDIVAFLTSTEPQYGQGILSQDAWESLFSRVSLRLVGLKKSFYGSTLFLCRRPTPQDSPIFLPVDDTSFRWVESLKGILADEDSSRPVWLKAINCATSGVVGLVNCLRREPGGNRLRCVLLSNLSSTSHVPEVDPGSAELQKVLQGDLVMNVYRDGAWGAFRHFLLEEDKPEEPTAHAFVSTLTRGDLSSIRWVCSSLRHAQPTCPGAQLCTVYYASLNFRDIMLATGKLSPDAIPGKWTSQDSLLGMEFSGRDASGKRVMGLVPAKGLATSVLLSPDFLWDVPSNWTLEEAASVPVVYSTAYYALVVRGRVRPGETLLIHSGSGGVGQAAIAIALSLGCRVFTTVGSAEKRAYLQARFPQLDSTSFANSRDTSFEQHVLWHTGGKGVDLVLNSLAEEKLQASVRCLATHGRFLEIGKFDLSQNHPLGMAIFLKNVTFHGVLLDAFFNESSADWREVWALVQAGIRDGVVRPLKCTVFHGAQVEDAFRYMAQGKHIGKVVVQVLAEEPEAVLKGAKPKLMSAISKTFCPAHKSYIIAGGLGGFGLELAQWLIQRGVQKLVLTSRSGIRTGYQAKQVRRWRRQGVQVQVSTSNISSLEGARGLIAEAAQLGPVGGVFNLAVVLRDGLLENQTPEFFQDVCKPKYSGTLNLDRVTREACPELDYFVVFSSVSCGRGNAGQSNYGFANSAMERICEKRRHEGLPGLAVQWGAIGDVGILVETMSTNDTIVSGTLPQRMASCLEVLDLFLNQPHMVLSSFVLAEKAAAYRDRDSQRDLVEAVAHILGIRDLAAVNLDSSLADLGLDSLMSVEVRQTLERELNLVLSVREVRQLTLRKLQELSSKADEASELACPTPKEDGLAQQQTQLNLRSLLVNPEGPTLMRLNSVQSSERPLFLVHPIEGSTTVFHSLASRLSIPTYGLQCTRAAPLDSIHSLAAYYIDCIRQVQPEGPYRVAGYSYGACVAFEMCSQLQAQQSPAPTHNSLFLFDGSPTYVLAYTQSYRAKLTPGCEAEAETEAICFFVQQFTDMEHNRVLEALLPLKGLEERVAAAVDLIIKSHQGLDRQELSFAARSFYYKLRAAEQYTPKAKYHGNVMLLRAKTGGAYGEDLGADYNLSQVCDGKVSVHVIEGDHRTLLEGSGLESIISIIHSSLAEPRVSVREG
T4 sequence (Q96RJ0 whole entry): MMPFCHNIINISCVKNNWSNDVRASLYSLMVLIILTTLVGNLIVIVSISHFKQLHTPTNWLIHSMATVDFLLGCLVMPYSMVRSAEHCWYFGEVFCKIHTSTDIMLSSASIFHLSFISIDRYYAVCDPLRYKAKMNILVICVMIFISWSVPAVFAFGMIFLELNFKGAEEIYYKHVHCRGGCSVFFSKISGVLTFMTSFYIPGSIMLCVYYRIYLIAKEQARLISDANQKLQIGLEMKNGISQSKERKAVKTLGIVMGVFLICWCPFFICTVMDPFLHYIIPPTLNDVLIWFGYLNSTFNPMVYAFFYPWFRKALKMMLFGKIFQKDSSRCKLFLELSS
T2 sequence (P78536 whole entry, the tested form may be a part): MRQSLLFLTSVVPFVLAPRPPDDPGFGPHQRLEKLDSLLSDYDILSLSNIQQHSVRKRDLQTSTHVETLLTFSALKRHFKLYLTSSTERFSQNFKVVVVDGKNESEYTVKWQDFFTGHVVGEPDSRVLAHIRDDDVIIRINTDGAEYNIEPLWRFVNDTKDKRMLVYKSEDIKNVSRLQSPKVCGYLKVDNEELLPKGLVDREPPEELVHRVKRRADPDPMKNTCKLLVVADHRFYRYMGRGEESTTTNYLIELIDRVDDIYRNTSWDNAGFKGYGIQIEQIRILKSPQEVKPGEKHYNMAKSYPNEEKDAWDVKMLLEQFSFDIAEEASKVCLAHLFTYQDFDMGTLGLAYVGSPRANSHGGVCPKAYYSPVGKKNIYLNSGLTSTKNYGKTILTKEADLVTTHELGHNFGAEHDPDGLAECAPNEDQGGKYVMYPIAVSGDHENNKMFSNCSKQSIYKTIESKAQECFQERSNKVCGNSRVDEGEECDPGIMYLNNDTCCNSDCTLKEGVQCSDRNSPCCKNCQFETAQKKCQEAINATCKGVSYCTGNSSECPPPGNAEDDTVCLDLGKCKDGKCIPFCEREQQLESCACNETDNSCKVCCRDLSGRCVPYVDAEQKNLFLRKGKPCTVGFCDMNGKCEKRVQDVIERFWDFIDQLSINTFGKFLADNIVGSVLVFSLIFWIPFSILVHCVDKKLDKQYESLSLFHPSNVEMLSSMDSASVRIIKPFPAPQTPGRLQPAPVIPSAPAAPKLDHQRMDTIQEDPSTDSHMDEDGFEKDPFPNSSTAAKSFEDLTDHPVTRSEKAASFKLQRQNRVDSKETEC
Arf-GAP with SH3 domain, ANK repeat and PH domain-containing protein 1, sequence (Q9ULH1 whole entry, the tested form may be a part): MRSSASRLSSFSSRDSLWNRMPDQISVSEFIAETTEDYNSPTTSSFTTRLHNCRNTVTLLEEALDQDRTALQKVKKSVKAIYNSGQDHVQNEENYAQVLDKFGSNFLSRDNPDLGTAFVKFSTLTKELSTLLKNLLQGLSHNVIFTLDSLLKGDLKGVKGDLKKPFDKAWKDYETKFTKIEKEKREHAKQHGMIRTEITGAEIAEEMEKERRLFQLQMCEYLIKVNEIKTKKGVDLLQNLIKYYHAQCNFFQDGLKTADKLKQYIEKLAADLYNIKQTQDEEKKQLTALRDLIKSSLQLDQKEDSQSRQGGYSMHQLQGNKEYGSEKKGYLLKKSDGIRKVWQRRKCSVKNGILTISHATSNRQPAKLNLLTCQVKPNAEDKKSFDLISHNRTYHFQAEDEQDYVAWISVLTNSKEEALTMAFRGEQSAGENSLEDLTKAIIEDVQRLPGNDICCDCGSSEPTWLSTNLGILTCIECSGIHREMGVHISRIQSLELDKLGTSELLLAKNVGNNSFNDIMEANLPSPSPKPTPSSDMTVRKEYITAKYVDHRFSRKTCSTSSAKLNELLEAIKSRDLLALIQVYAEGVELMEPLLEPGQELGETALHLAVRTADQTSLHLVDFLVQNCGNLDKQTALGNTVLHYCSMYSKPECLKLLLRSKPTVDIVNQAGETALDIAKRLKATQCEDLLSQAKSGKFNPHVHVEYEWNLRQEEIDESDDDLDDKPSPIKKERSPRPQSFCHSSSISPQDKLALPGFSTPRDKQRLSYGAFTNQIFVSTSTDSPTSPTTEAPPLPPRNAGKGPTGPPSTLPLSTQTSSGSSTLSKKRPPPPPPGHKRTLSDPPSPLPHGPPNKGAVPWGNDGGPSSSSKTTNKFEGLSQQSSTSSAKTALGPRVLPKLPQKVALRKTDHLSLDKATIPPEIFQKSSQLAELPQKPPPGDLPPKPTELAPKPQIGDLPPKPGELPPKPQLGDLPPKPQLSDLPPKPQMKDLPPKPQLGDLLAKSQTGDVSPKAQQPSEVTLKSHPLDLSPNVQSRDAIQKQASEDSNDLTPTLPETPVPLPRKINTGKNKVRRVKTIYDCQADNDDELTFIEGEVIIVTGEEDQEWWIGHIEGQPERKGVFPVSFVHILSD
Nonstructural protein 1, sequence (Q194T2 whole entry): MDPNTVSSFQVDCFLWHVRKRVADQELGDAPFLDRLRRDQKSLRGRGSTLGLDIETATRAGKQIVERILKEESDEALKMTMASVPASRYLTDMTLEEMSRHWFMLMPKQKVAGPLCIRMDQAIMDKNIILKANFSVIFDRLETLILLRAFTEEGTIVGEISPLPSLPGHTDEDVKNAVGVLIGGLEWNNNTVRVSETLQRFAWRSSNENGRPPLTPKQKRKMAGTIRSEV

COc1ccccc1N1CCN(C(=O)c2cc(=O)c3cc(C)ccc3o2)CC1
IC50 (Beta-galactosidase): > 80 µM (inactive)

CN1C(=O)/C(=C\c2cc(N=Nc3ccccc3)ccc2O)SC1=S
IC50 [1]: > 80 µM (inactive) | IC50 (Nonstructural protein 1): 4.51 µM (active) | IC50 (Fatty acid synthase [2]): 24.4 µM (inactive) | IC50 (Fatty acid synthase [3]): 33.7 µM (inactive)

CCNC(=O)CCC(=O)Nc1cc(Cl)ccc1C
AC50 [4]: 9 µM (active)

CCn1c(S)nnc1-c1csc2c1CCCC2
IC50 [5]: > 122 µM (inactive) | IC50 [6]: > 39.8 µM (not active) | IC50 [7]: 25.2 µM (not active)

CCc1cccc2c(C(=O)CN3C(=O)NC(C)(c4cccc5ccccc45)C3=O)c[nH]c12 (centres undefined)
IC50 [8]: 165 µM (inactive) | EC50 [9]: > 30 µM (not active) | EC50 [10]: 1.75 µM (active)

Cc1ccccc1NC1=NC(=O)/C(=C/c2cccn2C)S1
IC50 [11]: > 69.5 µM (inactive) | IC50 [12]: > 69.5 µM (inactive)

O=S(=O)(c1ccc(F)cc1)N1CCCC(c2nc(-c3ccc(F)cc3)no2)C1 (centres undefined)
EC50 [13]: 4.53 µM

Cc1cccc(NC(=O)Cn2c(O)c(N=NC(=O)c3ccccc3O)c3ccccc32)c1
IC50 [14]: 1.99 µM (active) | IC50 [15]: > 123 µM (inactive) | IC50 [16]: > 123 µM (inactive)

Cc1ccc(C)c(S(=O)(=O)N2CCC(c3nc(O)c4nnn(Cc5ccc6c(c5)OCCO6)c4n3)CC2)c1
IC50 [17]: > 69.5 µM (inactive) | IC50 [18]: > 69.5 µM (inactive) | CC50 [19]: > 40 µM (active)

CN(C)C1(CNC(=O)C2CCN(S(=O)(=O)c3ccccc3C(F)(F)F)CC2)CCCCC1
AC50 (Vero): 36.2 µM (active)

CCC(=O)N(C)C[C@H]1Oc2cc(-c3ccccc3)ccc2S(=O)(=O)N([C@H](C)CO)C[C@H]1C
AC50 (HeLa): 4.07 µM (active)

O=C(C=Cc1ccc(OCc2ccccc2)cc1)c1c(F)cccc1F
EC50 [20]: > 91.2 µM (inactive) | EC50 [21]: > 91.2 µM (inactive)

C[C@@H]1CCCCO[C@@H](CN(C)S(=O)(=O)c2ccccc2)[C@H](C)CN([C@H](C)CO)C(=O)c2cc(NC(=O)Nc3ccc(C(F)(F)F)cc3)ccc2O1
AC50 [22]: 28.4 µM (active) | AC50 [23]: 57.1 µM (active) | AC50 [24]: 20.2 µM (active) | AC50 [25]: 54.7 µM (active) | AC50 (Paired box protein Pax-8): 3.44 µM (active)

CC(C)[C@H](NC(=O)c1ccc(Cl)cc1Cl)C(=O)N1CCC[C@H]1C(=O)NCCc1ccccc1Cl
EC50 [26]: 1.19 µM (active) | EC50 (cells [27]): > 29.9 µM (inactive) | IC50 (cells [28]): > 29.9 µM (inactive) | IC50 [29]: 3.47 µM (active)

CCOC(=O)[C@]12CCC=C1N(Cc1ccccc1)C(=O)[C@H](CC(=O)N1CCCC1)C2
AC50 (A549): 25.3 µM (active)

COc1ccc(CNC(=O)c2cc3c(c(-c4cccc(-c5ccc(C#N)cc5)c4)n2)[C@@H](CCO)N([S@+]([O-])C(C)(C)C)C3)cc1
AbsAC35 [30]: 108.86 µM | AbsAC35 [31]: 56.25 µM

CCCN(C)C[C@@H]1OCCCC[C@H](C)Oc2ccc(NC(=O)Nc3ccc(F)cc3)cc2C(=O)N([C@H](C)CO)C[C@@H]1C
AC50 [32]: 13.1 µM (active)

CO[C@H]1CN(C)C(=O)c2ccc(NC(=O)c3ccc(-c4ccccc4)cc3)cc2OC[C@@H](C)NC[C@H]1C
AC50 [33]: 20.5 µM (active) | AC50 [34]: 26.2 µM (active) | AC50 [35]: 15.5 µM (active) | AC50 [36]: 22 µM (active) | AC50 [37]: 6.23 µM (active)

c1ccc(-c2nnc(SCc3cscn3)o2)cc1
AC50 [38]: > 52 µM (inactive)
